Reference: patent US6982348B2, “Aminoethanol derivatives” (Takeda Pharmaceutical Company Limited, priority 2001, dated 2006)

Legend:
[1] = target: T1, human CETP (Homo sapiens, UniProt P11597); assay: Assay of cholesteryl ester transfer protein inhibitory activity, standard measurement system; type: biochemical; settings: BODIPY-CE-ME donor, VLDL-LDL acceptor, reaction at 37° C. for 30 min.
T1 sequence (P11597 18-493): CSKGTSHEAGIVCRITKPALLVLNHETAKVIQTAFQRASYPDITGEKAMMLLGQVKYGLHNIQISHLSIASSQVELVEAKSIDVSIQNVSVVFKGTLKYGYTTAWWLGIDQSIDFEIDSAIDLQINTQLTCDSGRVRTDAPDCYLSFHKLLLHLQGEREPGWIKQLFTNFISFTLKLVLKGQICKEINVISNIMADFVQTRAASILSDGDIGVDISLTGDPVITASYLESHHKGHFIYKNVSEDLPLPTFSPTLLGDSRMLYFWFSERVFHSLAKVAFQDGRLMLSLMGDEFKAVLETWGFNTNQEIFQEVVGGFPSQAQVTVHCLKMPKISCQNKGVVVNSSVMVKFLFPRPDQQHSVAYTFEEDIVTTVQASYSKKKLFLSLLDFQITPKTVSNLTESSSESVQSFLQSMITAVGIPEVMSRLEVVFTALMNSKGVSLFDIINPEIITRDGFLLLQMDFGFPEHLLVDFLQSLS
Experimental: (§1) Assay of Cholesteryl Ester Transfer Protein Inhibitory Activity
(§2) Fresh rabbit serum was adjusted with KBr to the density of (1.063 g/ml), and the fractions (VLDL-LDL, density<1.063 g/ml) floated by ultra-centrifugation operation (SW41—Ti, 40,000 rpm, 18 hrs., 4° C., Beckman model L8-55) were collected, subjected to dialysis against 0.15 M NaCl-10 mM Tris-HCl, pH 7.4 (TBS), sterilized by filtration through a filter and preserved at 4° C.
(§3) A solution of BODIPY-CE (0.6 mg) in chloroform was added to egg PC (phosphatidylcholine) ([…]) and triolein (2 mg), and after dissolution, the lipid was air dried under a nitrogen gas reflux and the solvent was removed under high vacuum. To this lipid was added an apo HDL solution (7.5 ml) obtained by defatting human HDL (1.063<d<1.21) with chloroform-methanol (2:1, v/v), dissolving in 6 M urea-containing TBS and dialyzing against TBS, and the mixture was subjected to sonication (BRANSON SONIFIRE CELL DISRUPTOR 200, dial 6, 5 min×4) to give BOBIPY-CE-ME. After centrifugation (CENTRIPREP 10), it was sterilized by filtration through a filter and preserved at 4° C.
(§4) The test compound (20% DMSO solution, 5 μl), TS (75 μl), acceptor lipoprotein (VLDL-LDL, 20 μl) and partially purified human CETP (25 μl) were mixed and incubated at 37° C. for 30 min. BODIPY-CE-ME (25 μl) was added (total 150 μl) and a transfer reaction was started. After reaction at 37° C. for 30 min., fluorescence intensity was measured at Ex. 490 nm/Em. 530 nm. The CETP inhibitory activity (% inhibition) was calculated by the following formula. [formula] 4) 50% Human Plasma-Containing Measurement System
(§5) The IC50 value was determined as a concentration showing 50% inhibition by plotting the logarithm of the concentration of test compound and % inhibition.

[2] = target: T1, human CETP; assay: Assay of cholesteryl ester transfer protein inhibitory activity, 50% human plasma-containing measurement system; type: biochemical; settings: BODIPY-CE-ME donor, VLDL-LDL acceptor, reaction at 37° C. for 60 min.
Experimental: as §1, §2, §3
as §4, with “5 μl), human plasma (75 μl),” for “5 μl), TS (75 μl),”, “C. for 60 min., fluorescence” for “C. for 30 min., fluorescence”, “formula. [formula]” for “formula. [formula] 4) 50% Human Plasma-Containing Measurement System”
as §5

Structure (SMILES)	IC50 [1]	melting point	IC50 [2]
O=C(N[C@H](Cc1ccc(C(F)(F)F)cc1)[C@@H](O)c1ccc(F)cc1)c1cccc2c1C=CCCC2 (racemic) [Example 29, N-[(1RS,2SR)-2-(4-fluorophenyl)-2-hydroxy-1-[4-(trifluoromethyl)benzyl]ethyl]-6,7-dihydro-5H-benzo[a]cycloheptene-1-carboxamide]	0.12 µM	197 to 198 °C	–
O=C(N[C@H](Cc1ccc(C(F)(F)F)cc1)[C@@H](O)c1ccc(F)cc1)c1ccc(F)c2ccccc12 (racemic) [Example 30, 4-fluoro-N-((1RS,2SR)-2-(4-fluorophenyl)-2-hydroxy-1-((4-(trifluoromethyl)phenyl)methyl)ethyl)-1-naphthalenecarboxamide]	0.3 µM	210 to 211 °C	2.5 µM
O=C(N[C@H](Cc1cccc(OC(F)(F)C(F)F)c1)[C@@H](O)c1ccc(F)cc1)c1ccc(F)c2ccccc12 (racemic) [Example 125, 4-fluoro-N-[(1RS,2SR)-2-(4-fluorophenyl)-2-hydroxy-1-[3-(1,1,2,2-tetrafluoroethoxy)benzyl]ethyl]naphthalene-1-carboxamide]	0.051 µM	186 to 187 °C	2 µM
CC(C)c1ccc(C[C@@H](NC(=O)c2cccc3c2C=CCCC3)[C@@H](O)c2ccc(F)cc2)cc1 (racemic) [Example 155, N-[(1RS,2SR)-2-(4-fluorophenyl)-2-hydroxy-1-(4-isopropylbenzyl)ethyl]-6,7-dihydro-5H-benzo[a]cycloheptene-1-carboxamide]	0.095 µM	168 to 169 °C	2.1 µM
O=C(N[C@H](Cc1ccc(C(F)(F)F)cc1)[C@@H](O)c1cccc(F)c1)c1cccc2c1C=CCCC2 (racemic) [Example 177, N-((1RS,2SR)-2-(3-fluorophenyl)-2-hydroxy-1-((4-(trifluoromethyl)phenyl)methyl)ethyl)-6,7-dihydro-5H-benzo[a]cycloheptene-1-carboxamide]	0.091 µM	151 to 152 °C	–
O=C(N[C@H](Cc1ccc(C(F)(F)F)cc1)[C@@H](O)c1ccc(Oc2ccccc2)cc1)c1cccc2c1C=CCCC2 (racemic) [Example 210, N-((1RS,2SR)-2-hydroxy-2-(4-phenoxyphenyl)-1-((4-(trifluoromethyl)phenyl)methyl)ethyl)-6,7-dihydro-5H-benzo[a]cycloheptene-1-carboxamide]	0.088 µM	–	1.4 µM
O=C(N[C@H](Cc1cccc(OC(F)(F)C(F)F)c1)[C@@H](O)c1ccc(Oc2ccccc2)cc1)c1cccc2c1C=CCCC2 (racemic) [Example 217, N-((1RS,2SR)-2-hydroxy-2-(4-(phenyloxy)phenyl)-1-((3-((1,1,2,2-tetrafluoroethyl)oxy)phenyl)methyl)ethyl)-6,7-dihydro-5H-benzo[a]cycloheptene-1-carboxamide]	0.0084 µM	–	0.08 µM
CCc1cc(Oc2ccc([C@H](O)[C@@H](Cc3cccc(OC(F)(F)C(F)F)c3)NC(=O)c3cccc4c3C=CCCC4)cc2)ccc1Cl (racemic) [Example 218, N-((1RS,2SR)-2-(4-((4-chloro-3-ethylphenyl)oxy)phenyl)-2-hydroxy-1-((3-((1,1,2,2-tetrafluoroethyl)oxy)phenyl)methyl)ethyl)-6,7-dihydro-5H-benzo[a]cycloheptene-1-carboxamide]	0.056 µM	116 to 117 °C	0.66 µM
O=C(N[C@H](Cc1cccc(OC(F)(F)C(F)F)c1)[C@@H](O)c1ccnc(F)c1)c1cccc2c1C=CCCC2 (racemic) [Example 220, N-((1RS,2SR)-2-(2-fluoropyridin-4-yl)-2-hydroxy-1-((3-(1,1,2,2-tetrafluoroethoxy)phenyl)methyl)ethyl)-6,7-dihydro-5H-benzo[a]cycloheptene-1-carboxamide]	0.03 µM	159 to 160 °C	1.4 µM
O=C(N[C@H](Cc1cccc(OC(F)(F)C(F)F)c1)[C@@H](O)c1cccc(F)n1)c1cccc2c1C=CCCC2 (racemic) [Example 222, N-((1RS,2RS)-2-(6-fluoropyridin-2-yl)-2-hydroxy-1-((3-(1,1,2,2-tetrafluoroethoxy)phenyl)methyl)ethyl)-6,7-dihydro-5H-benzo[a]cycloheptene-1-carboxamide]	0.079 µM	151 to 152 °C	–
O=C(NC(Cc1ccc(C(F)(F)F)cc1)C(O)c1ccc(F)cc1)c1cccc2ccccc12 (stereo not drawn) [226(+)-form]	0.4 µM	–	4.2 µM
O=C(NC(Cc1ccc(C(F)(F)F)cc1)C(O)c1ccc(F)cc1)c1ccc(F)c2ccccc12 (stereo not drawn) [227(+)-form]	0.21 µM	–	1.7 µM
O=C(NC(Cc1cccc(OC(F)(F)C(F)F)c1)C(O)c1ccc(F)cc1)c1ccc(F)c2ccccc12 (stereo not drawn) [228(+)-form]	0.03 µM	–	0.99 µM

Second part, the compound after the results:

IC50 [1]	melting point	IC50 [2]	Structure (SMILES)
0.015 µM	176 to 177 °C	0.49 µM	O=C(N[C@H](Cc1cccc(OC(F)(F)C(F)F)c1)[C@@H](O)c1ccc(F)cc1)c1cccc2c1C=CCCC2 (racemic) [Example 122, N-[(1RS,2SR)-2-(4-fluorophenyl)-2-hydroxy-1-[3-(1,1,2,2-tetrafluoroethoxy)benzyl]ethyl]-6,7-dihydro-5H-benzo[a]cycloheptene-1-carboxamide]
0.035 µM	165 to 166 °C	0.95 µM	O=C(N[C@H](Cc1cccc(OC(F)(F)C(F)F)c1)[C@@H](O)c1ccc(F)cc1)c1cccc2c1C=CCC2 (racemic) [Example 123, N-[(1RS,2SR)-2-(4-fluorophenyl)-2-hydroxy-1-[3-(1,1,2,2-tetrafluoroethoxy)benzyl]ethyl]-5,6-dihydronaphthalene-1-carboxamide]
0.046 µM	194 to 195 °C	2.4 µM	O=C(N[C@H](Cc1cccc(OC(F)(F)C(F)F)c1)[C@@H](O)c1ccc(F)cc1)c1cccc2c1CCCCC2 (racemic) [Example 124, N-[(1RS,2SR)-2-(4-fluorophenyl)-2-hydroxy-1-[3-(1,1,2,2-tetrafluoroethoxy)benzyl]ethyl]-6,7,8,9-tetrahydro-5H-benzo[a]cycloheptene-1-carboxamide]
0.07 µM	189 to 190 °C	1 µM	O=C(N[C@H](Cc1cccc(OC(F)(F)C(F)F)c1)[C@@H](O)c1ccc(F)cc1)c1cccc2c1C=CCCCC2 (racemic) [Example 126, N-[(1RS,2SR)-2-(4-fluorophenyl)-2-hydroxy-1-[3-(1,1,2,2-tetrafluoroethoxy)benzyl]ethyl]-5,6,7,8-tetrahydrobenzo[a]cyclooctene-1-carboxamide]
0.04 µM	182 to 183 °C	0.7 µM	O=C(N[C@H](Cc1cccc(OC(F)(F)C(F)F)c1)[C@@H](O)c1ccc(Cl)cc1)c1cccc2c1C=CCCC2 (racemic) [Example 216, N-[(1RS,2SR)-2-(4-chlorophenyl)-2-hydroxy-1-[3-(1,1,2,2-tetrafluoroethoxy)benzyl]ethyl]-6,7-dihydro-5H-benzo[a]cycloheptene-1-carboxamide]
0.0086 µM	–	0.24 µM	O=C(NC(Cc1cccc(OC(F)(F)C(F)F)c1)C(O)c1ccc(F)cc1)c1cccc2c1C=CCCC2 (stereo not drawn) [229(+)-form]
